Results published in patent publication US20220023274A1, “USE OF A BERBERIS AND RESVERATROL MIXTURE TO CONTROL DYSLIPIDEMIA” (priority 2018, published 2022).

Experiments:
[1] = test system: Low-Density lipoprotein Receptor (LDL-R); assay: Transcriptional expression of the LDL receptor in hepatocytes in vitro (Example 1, FIG. 1); type: cell-based; conditions: 24 hours, Berberine 5 μg/mL, Resveratrol 3 μM, each applied alone, vs CTRL (no treatments)
Text: It could be said that the concentration tested is bio-equivalent to that of Berberine with a concentration of 50% higher than that administered according to the work of Kong et to 2004. (Kong W, Wei J, Abidi P, Lin M, Inaba S, Li C, Wang Y, Wang Z, Si S, Pan H, 10 Wang S, Wu J, Wang Y, Li Z, Liu J, Jiang J D. Berberine is a novel cholesterol-lowering drug working through a unique mechanism distinct from statins. Nat Med. 2004 December; 10(12):1344-51)).
Resveratrol being without effect alone is therefore a synergy, never observed before. The innovation is therefore in having observed a synergy between resveratrol and berberine with resveratrol which enhances the effects of berberine in the expression of LDL-R. The results are summarized in FIG. 1.

LDL cholesterol = assay: Case report: LDL cholesterol level under dietary supplementation (Example 9); type: in vivo, human; conditions: The patient, initial LDL cholesterol 3.91 mM; berberine 500 mg for 1 month; Revifast dosage as in examples 2-5
Procedure: […] The patient is […] and is classified borderline for the lipid profile with an LDL cholesterol level of 3.91 mM. In their dietary supplement scheme, they took a berberine 500 mg supplement separately for 1 month, taking lipoprotein levels to 3.4 mM. […] The quantities assumed by […] FG are such that the dosage used is that shown in examples 2-5.

plasma LDL concentration = assay: Case reports of subjects (n=4): plasma LDL concentration, reduction compared to nontreated condition (FIG. 2); type: in vivo, human; conditions: n=4 subjects; berberine 500 mg alone or with 48 mg resveratrol (pure, or as 160 mg REVIFAST)
Text: Information were also collected from case reports of a number of subjects supplemented in their diet substantially as above.
As it can be seen, when the subjects are supplemented with berberine the levels of LDL cholesterol were reduced. […] It is therefore believed that it is the way in which resveratrol is absorbed that influences the synergistic action of resveratrol to reduce LDL cholesterol by berberine.

Row | SMILES | transcription of the LDL receptor (effect in words) [1] | LDL cholesterol level (plasma concentration) (LDL cholesterol) | effect on plasma LDL cholesterol (in words) (plasma LDL concentration)
1 | Oc1ccc(C=Cc2cc(O)cc(O)c2)cc1 [resveratrol, 3,5,4′-trihydroxystilbene] | no apparent effect | – | –
2 | COc1ccc2cc3[n+](cc2c1OC)CCc1cc2c(cc1-3)OCO2 [Berberine] | tends to increase | 3.4 mM | reduced
